Here are results for 33 compounds from patent US10239843B2 (CANCER RESEARCH TECHNOLOGY LIMITED, priority 2014, dated 2019).

Structures are written as SMILES. Where two headings read alike, the source gives them in different places.

For assay [1], the system named is PARG in HeLa cell line. Briefly: PARG cell assay (PAR chain immunofluorescence after MMS). The assay is classed as cell-based. The conditions noted are these: HeLa cells. In a few lines:
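HeLa cells were dosed with compound for 1 h, then given MMS at 50 μg/mL final for a further hour. Cells were methanol-fixed, permeabilised and stained overnight at 4° C with anti-PAR monoclonal antibody. Retained nuclear PAR chains, detected by indirect immunofluorescence, indicate PARG inhibition.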

For assay [2], the target named is Human Full Length PARG (Homo sapiens (Human), UniProt Q86W56). Briefly: PARG enzyme assay (TR-FRET). The assay is classed as biochemical.
Where [3] appears, read: Homo sapiens, MMS 50 μg/mL, read-out: PARG Cell IC50 Geomean.
[4] abbreviates: read-out: PARG Biochem IC50 Geomean.
The mark [5] stands for this setting: Homo sapiens, MMS treatment, read-out: PARG Cell IC50.
Where [6] appears, read: MMS 50 μg/mL, read-out: PARG Cell IC50 Geomean.
Where [7] appears, read: MMS treatment, read-out: PARG Cell IC50.

Human Full Length PARG, sequence (Q86W56 whole entry): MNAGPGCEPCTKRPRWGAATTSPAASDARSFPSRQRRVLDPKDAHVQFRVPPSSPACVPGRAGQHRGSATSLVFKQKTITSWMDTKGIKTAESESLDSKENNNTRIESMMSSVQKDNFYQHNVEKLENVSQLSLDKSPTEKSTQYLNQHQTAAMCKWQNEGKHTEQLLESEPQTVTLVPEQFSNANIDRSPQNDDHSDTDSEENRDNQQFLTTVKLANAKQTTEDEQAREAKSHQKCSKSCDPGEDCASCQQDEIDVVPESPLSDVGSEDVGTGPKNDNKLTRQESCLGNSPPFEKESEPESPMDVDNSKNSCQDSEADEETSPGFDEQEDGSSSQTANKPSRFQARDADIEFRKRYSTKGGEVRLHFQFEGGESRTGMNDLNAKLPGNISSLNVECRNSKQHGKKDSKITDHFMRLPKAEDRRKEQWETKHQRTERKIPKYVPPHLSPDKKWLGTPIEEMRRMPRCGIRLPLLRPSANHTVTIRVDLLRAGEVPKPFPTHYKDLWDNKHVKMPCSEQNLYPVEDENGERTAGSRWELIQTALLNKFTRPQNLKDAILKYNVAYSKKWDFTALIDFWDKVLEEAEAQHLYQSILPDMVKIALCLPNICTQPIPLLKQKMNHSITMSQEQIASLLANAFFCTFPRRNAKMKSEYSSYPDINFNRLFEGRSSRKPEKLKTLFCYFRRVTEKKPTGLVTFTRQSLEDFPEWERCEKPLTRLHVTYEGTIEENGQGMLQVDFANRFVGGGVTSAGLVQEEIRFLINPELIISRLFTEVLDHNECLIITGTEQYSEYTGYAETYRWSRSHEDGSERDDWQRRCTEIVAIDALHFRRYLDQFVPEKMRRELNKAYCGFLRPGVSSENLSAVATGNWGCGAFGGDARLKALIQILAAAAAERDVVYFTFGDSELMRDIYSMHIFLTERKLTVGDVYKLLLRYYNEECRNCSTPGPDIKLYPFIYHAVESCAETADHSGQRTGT

The term IC50 denotes the midpoint of a concentration-inhibition curve. `Cc1cc(Cn2c(=O)c3cc(S(=O)(=O)NC4(C)CC4)ccc3n(CC(F)(F)F)c2=O)on1` [Example 325]: the IC50 in assay [1] (setting [3]) is 320 nM; in assay [2] (setting [4]), 431 nM.
On to `Cc1cc(Cn2c(=O)c3cc(S(=O)(=O)NC4(C)CC4)ccc3n(CCF)c2=O)on1` [Example 411, 1-(2-Fluoroethyl)-N-(1-methylcyclopropyl)-3-[(3-methylisoxazol-5-yl)methyl]-2,4-dioxo-quinazoline-6-sulfonamide], for which the values for the IC50 in assay [1] (setting [5]) and in assay [2] (read-out: PARG Biochem IC50) were 104 nM and 409 nM, respectively.
The matching figures for `CCCn1c(=O)n(Cc2cnn(C)c2)c(=O)c2cc(S(=O)(=O)NC3(CF)CC3)ccc21` [Example 597, N-[1-(Fluoromethyl)cyclopropyl]-3-[(1-methylpyrazol-4-yl)methyl]-2,4-dioxo-1-propyl-quinazoline-6-sulfonamide]: 86 nM and 100 nM.
Consider `Cc1nnc(Cn2c(=O)n(Cc3cnn(C)c3)c(=O)c3cc(S(=O)(=O)NC4(CF)CC4)ccc32)o1` [Example 567, N-[1-(Fluoromethyl)cyclopropyl]-1-[(5-methyl-1,3,4-oxadiazol-2-yl)methyl]-3-[(1-methylpyrazol-4-yl)methyl]-2,4-dioxo-quinazoline-6-sulfonamide], for which the values for the IC50 in assay [1] (setting [5]) and in assay [2] (read-out: PARG Biochem IC50) were 855 nM and 225 nM, respectively.
Turning to `C#CCn1c(=O)n(Cc2c(C)noc2C)c(=O)c2cc(S(=O)(=O)NC3(C)CC3)ccc21` [Example 159], the results for the IC50 in assay [1] (setting [3]) and in assay [2] (setting [4]) were 153 nM and 109 nM, respectively.
The matching figures for `Cc1ncc(Cn2c(=O)n(C)c(=O)c3cc(S(=O)(=O)NC4(C)CC4)ccc32)s1` [Example 126]: 214 nM and 240 nM.
The matching figures for `CN(C)C(=O)Cn1c(=O)n(Cc2cnn(C)c2)c(=O)c2cc(S(=O)(=O)NC3(C)CC3)ccc21` [Example 265]: 6480 nM and 418 nM.
As for `Cn1cc(Cn2c(=O)c3cc(S(=O)(=O)NC4(CF)CC4)ccc3n(Cc3ccncc3)c2=O)cn1` [Example 610, N-[1-(Fluoromethyl)cyclopropyl]-3-[(1-methylpyrazol-4-yl)methyl]-2,4-dioxo-1-(4-pyridylmethyl)quinazoline-6-sulfonamide], the IC50 was 669 nM in assay [1] (setting [5]) and 111 nM in assay [2] (read-out: PARG Biochem IC50).
The like results for `Cc1cc(Cn2c(=O)c3cc(S(=O)(=O)NC4(C)CC4)ccc3n(CC(C)(C)C#N)c2=O)on1` [Example 452, 1-(2-Cyano-2-methyl-propyl)-N-(1-methylcyclopropyl)-3-[(3-methylisoxazol-5-yl)methyl]-2,4-dioxo-quinazoline-6-sulfonamide] were, in that order, 280 nM and 202 nM.
As for `Cc1cc(Cn2c(=O)c3cc(S(=O)(=O)NC4(CF)CC4)ccc3n(Cc3nc(C)nn3C)c2=O)on1` [Example 554, 1-[(2,5-Dimethyl-1,2,4-triazol-3-yl)methyl]-N-[1-(fluoromethyl)cyclopropyl]-3-[(3-methylisoxazol-5-yl)methyl]-2,4-dioxo-quinazoline-6-sulfonamide], the IC50 in assay [1] (setting [5]) is 604 nM; in assay [2] (read-out: PARG Biochem IC50), 499 nM.
The like results for `Cc1cc(Cn2c(=O)c3cc(S(=O)(=O)NC4(C)CC4)ccc3n(C(F)F)c2=O)on1` [Example 605, 1-(Difluoromethyl)-N-(1-methylcyclopropyl)-3-[(3-methylisoxazol-5-yl)methyl]-2,4-dioxo-quinazoline-6-sulfonamide] were, in that order, 588 nM and 1370 nM.
With `CCn1c(=O)n(Cc2cc(C)no2)c(=O)c2cc(S(=O)(=O)NC3(C)CC3)ccc21` [Example 304], the IC50 stood at 113 nM in assay [1] (setting [3]) and 329 nM in assay [2] (setting [4]).
`Cc1cc(Cn2c(=O)c3cc(S(=O)(=O)NC4(C)CC4)ccc3n(Cc3ccc(F)cc3)c2=O)on1` [Example 199]: the IC50 in assay [1] (setting [6]) amounted to 99 nM; in assay [2] (setting [4]) it was 92 nM.
`Cn1cc(Cn2c(=O)c3cc(S(=O)(=O)NC4(CF)CC4)ccc3n(Cc3cccc(F)n3)c2=O)cn1` [Example 540, N-[1-(Fluoromethyl)cyclopropyl]-1-[(6-fluoro-2-pyridyl)methyl]-3-[(1-methylpyrazol-4-yl)methyl]-2,4-dioxo-quinazoline-6-sulfonamide]: the IC50 in assay [1] (setting [5]) is 96 nM; in assay [2] (read-out: PARG Biochem IC50), 160 nM.
On to `Cc1cc(Cn2c(=O)c3cc(S(=O)(=O)NC4(CF)CC4)ccc3n(Cc3ncnn3C)c2=O)on1` [Example 557, N-[1-(Fluoromethyl)cyclopropyl]-3-[(3-methylisoxazol-5-yl)methyl]-1-[(2-methyl-1,2,4-triazol-3-yl)methyl]-2,4-dioxo-quinazoline-6-sulfonamide], for which the IC50 turned out to be 857 nM in assay [1] (setting [5]) and 368 nM in assay [2] (read-out: PARG Biochem IC50).
Turning to `COCCOCCn1c(=O)n(Cc2cnn(C)c2)c(=O)c2cc(S(=O)(=O)NC3(CF)CC3)ccc21` [Example 618, N-[1-(Fluoromethyl)cyclopropyl]-1-[2-(2-methoxyethoxy)ethyl]-3-[(1-methylpyrazol-4-yl)methyl]-2,4-dioxo-quinazoline-6-sulfonamide], the IC50 was 325 nM in assay [1] (setting [7]) and 247 nM in assay [2] (read-out: PARG Biochem IC50).
In the case of `Cn1c(=O)n(CCC#N)c(=O)c2cc(S(=O)(=O)NC3(C)CC3)ccc21` [Example 497, 3-(2-Cyanoethyl)-1-methyl-N-(1-methylcyclopropyl)-2,4-dioxo-quinazoline-6-sulfonamide], the IC50 in assay [1] (setting [5]) stood at 2250 nM; in assay [2] (read-out: PARG Biochem IC50), 2710 nM.
In the case of `CN1CCC(Cn2c(=O)n(Cc3cnn(C)c3)c(=O)c3cc(S(=O)(=O)NC4(C)CC4)ccc32)CC1` [Example 372], the IC50 came out at 2140 nM in assay [1] (setting [3]) and 146 nM in assay [2] (setting [4]).
For the compound `Cc1cc(Cn2c(=O)n(Cc3cnn(C)c3)c(=O)c3cc(S(=O)(=O)NC4(CF)CC4)ccc32)[nH]n1` [Example 561, N-[1-(Fluoromethyl)cyclopropyl]-3-[(1-methylpyrazol-4-yl)methyl]-1-[(3-methyl-1H-pyrazol-5-yl)methyl]-2,4-dioxo-quinazoline-6-sulfonamide], the IC50 in assay [1] (setting [5]) stood at 570 nM; in assay [2] (read-out: PARG Biochem IC50), 95 nM.
For `Cn1cc(Cn2c(=O)c3cc(S(=O)(=O)NC4(C)CC4)ccc3n(CCF)c2=O)cn1` [Example 410, 1-(2-Fluoroethyl)-N-(1-methylcyclopropyl)-3-[(1-methylpyrazol-4-yl)methyl]-2,4-dioxo-quinazoline-6-sulfonamide], the IC50 in assay [1] (setting [5]) worked out at 126 nM; in assay [2] (read-out: PARG Biochem IC50), 263 nM.
The like results for `Cn1cc(Cn2c(=O)c3cc(S(=O)(=O)NC4(CF)CC4)ccc3n(Cc3nc[nH]n3)c2=O)cn1` [Example 587, N-[1-(Fluoromethyl)cyclopropyl]-3-[(1-methylpyrazol-4-yl)methyl]-2,4-dioxo-1-(1H-1,2,4-triazol-3-ylmethyl)quinazoline-6-sulfonamide] were, in that order, 7980 nM and 207 nM.
For the compound `Cc1cc(Cn2c(=O)c3cc(S(=O)(=O)NC4(C)CC4)ccc3n(CCCO)c2=O)on1` [Example 407, 1-(3-Hydroxypropyl)-N-(1-methylcyclopropyl)-3-[(3-methylisoxazol-5-yl)methyl]-2,4-dioxo-quinazoline-6-sulfonamide], the IC50 in assay [1] (setting [5]) came out at 625 nM; in assay [2] (read-out: PARG Biochem IC50) it was 394 nM.
For `COc1cccc(Cn2c(=O)n(CC#N)c(=O)c3cc(S(=O)(=O)NC4(C)CC4)ccc32)c1` [Example 187], the figures for the IC50 in assay [1] (setting [3]) and in assay [2] (setting [4]) were 343 nM and 467 nM, respectively.
`Cn1cc(Cn2c(=O)c3cc(S(=O)(=O)NC4(CF)CC4)ccc3n(Cc3ccc(C#N)cc3)c2=O)cn1` [Example 543, 1-[(4-Cyanophenyl)methyl]-N-[1-(fluoromethyl)cyclopropyl]-3-[(1-methylpyrazol-4-yl)methyl]-2,4-dioxo-quinazoline-6-sulfonamide]: the IC50 in assay [1] (setting [5]) came out at 70 nM; in assay [2] (read-out: PARG Biochem IC50), 58 nM.
`Cc1cc(Cn2c(=O)c3cc(S(=O)(=O)NC4(C)CC4)ccc3n(CC(=O)N3CCC3)c2=O)on1` [Example 414, 1-[2-(Azetidin-1-yl)-2-oxo-ethyl]-N-(1-methylcyclopropyl)-3-[(3-methylisoxazol-5-yl)methyl]-2,4-dioxo-quinazoline-6-sulfonamide]: the IC50 in assay [1] (setting [7]) came out at 9220 nM; in assay [2] (read-out: PARG Biochem IC50) it was 2080 nM.
For `Cc1cc(Cn2c(=O)c3cc(S(=O)(=O)NC4(C)CC4)ccc3n(CCC(N)=O)c2=O)on1` [Example 277], the IC50 in assay [1] (setting [3]) turned out to be 5760 nM; in assay [2] (setting [4]) it was 432 nM.
On to `CSCCn1c(=O)n(Cc2cc(C)no2)c(=O)c2cc(S(=O)(=O)NC3(C)CC3)ccc21` [Example 362], for which the IC50 in assay [1] (setting [3]) is 126 nM; in assay [2] (setting [4]) it was 331 nM.
For the compound `Cn1cc(Cn2c(=O)c3cc(S(=O)(=O)NC4(C)CC4)ccc3n(CCN3CCOCC3)c2=O)cn1` [Example 271], the IC50 was 161 nM in assay [1] (setting [6]) and 97 nM in assay [2] (setting [4]).
Take `Cn1nc(C(C)(C)C)cc1Cn1c(=O)n(C)c(=O)c2cc(S(=O)(=O)NC3(C)CC3)ccc21` [Example 149]: the IC50 in assay [1] (setting [3]) came out at 518 nM; in assay [2] (setting [4]), 293 nM.
Take `Cc1cc(Cn2c(=O)c3cc(S(=O)(=O)NC4(C)CC4)ccc3n(CC3CCSCC3)c2=O)on1` [Example 381]: the IC50 in assay [1] (setting [3]) stood at 208 nM; in assay [2] (setting [4]) it was 126 nM.
`Cc1cc(Cn2c(=O)n(C)c(=O)c3cc(S(=O)(=O)NC4(C)CC4)c(F)cc32)n(C)n1` [Example 213]: the IC50 in assay [1] (setting [3]) amounted to 787 nM; in assay [2] (setting [4]) it was 473 nM.
The matching figures for `Cn1cc(Cn2c(=O)c3cc(S(=O)(=O)NC4(C)CC4)ccc3n(CCN3CCCC3)c2=O)cn1` [Example 272]: 467 nM and 317 nM.
Turning to `Cn1cc(Cn2c(=O)c3cc(S(=O)(=O)NC4(CF)CC4)ccc3n(CC3CCOC3)c2=O)cn1` (stereo not drawn) [Example 598, N-[1-(Fluoromethyl)cyclopropyl]-3-[(1-methylpyrazol-4-yl)methyl]-2,4-dioxo-1-(tetrahydrofuran-3-ylmethyl)quinazoline-6-sulfonamide], the results for the IC50 in assay [1] (setting [5]) and in assay [2] (read-out: PARG Biochem IC50) were 240 nM and 82 nM, respectively.
